Source: patent US5061794A, “Cephalosporin derivatives, and antibacterial agents” (priority 1986, dated 1991)
Like-named read-outs stand apart in the source and are kept apart here.

Experiments:
Ps. cepacia 23 = experiment: in vitro antibacterial activity, agar plate dilution method (MIC); type: cell-based, Pseudomonas cepacia; settings: read-out: Minimum Inhibitory Concentration (MIC)
How it was run: (§1)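 MIC values (μg/ml) come from Mueller Hinton agar dilution plates inoculated with overnight-grown bacteria at 10^6 CFU/ml and kept at 37° C. for 16 hours.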

E. coli GN5482 = experiment: as above; type: cell-based; settings: Escherichia coli, GN5482, 16 h
How it was run: as §1

S. aureus 209P NIHJ-JC1 = experiment: as above; type: cell-based; settings: Staphylococcus aureus, 16 h, 10^6 CFU/ml, 37° C., 16 hours
How it was run: as §1

E. cloacae 963 = experiment: as above; type: cell-based; settings: Enterobacter cloacae, 963, 16 h, read-out: Minimum Inhibitory Concentration (MIC), E. cloacae 963; 10^6 CFU/ml
How it was run: as §1

P. vulgaris No. 33 = experiment: as above; type: cell-based; settings: Proteus vulgaris, NO.33, 16 h, read-out: Minimum Inhibitory Concentration (MIC), *P. vulgaris No. 33, lactamase-producing strain; 10^6 CFU/ml
How it was run: as §1

S. marcescens No. 16-2 = experiment: as above; type: cell-based; settings: Serratia marcescens, NO.162, 16 h, read-out: Minimum Inhibitory Concentration (MIC)
How it was run: as §1

P. vulgaris HX-19 = experiment: as above; type: cell-based; settings: Proteus vulgaris, HX19, 16 h, P. vulgaris HX-19; 10^6 CFU/ml; read-out: Minimum Inhibitory Concentration (MIC)
How it was run: as §1

K. pneumoniae No. 42 = experiment: as above; type: cell-based; settings: Klebsiella pneumoniae, 10^6 CFU/ml
How it was run: as §1

M. morganii GN5407 = experiment: as above; type: cell-based; settings: Morganella morganii, GN5407, 16 h, read-out: Minimum Inhibitory Concentration (MIC), *M. morganii GN5407, lactamase-producing strain; 10^6 CFU/ml
How it was run: as §1

S. marcescens IAM 1184 = experiment: as above; type: cell-based; settings: Serratia marcescens, IAM1184, 16 h, read-out: Minimum Inhibitory Concentration (MIC)
How it was run: as §1

K. oxytoca GN10650 = experiment: as above; type: cell-based; settings: Klebsiella oxytoca, 10^6 CFU/ml
How it was run: as §1

E. coli NIHJ JC2 = experiment: as above; type: cell-based; settings: Escherichia coli, NIHJJC2, 16 h, read-out: Minimum Inhibitory Concentration (MIC), E. coli NIHJ JC2, 10^6 CFU/ml, 37° C.
How it was run: as §1

K. pneumoniae PCI-602 = experiment: as above; type: cell-based; settings: Klebsiella pneumoniae, PCI602, 16 h, 10^6 CFU/ml
How it was run: as §1

E. cloacae Nek 39 = experiment: as above; type: cell-based; settings: Enterobacter cloacae, NEK39, 16 h, 10^6 CFU/ml
How it was run: as §1

E. coli CSH(RE45) = experiment: microbe, parasite or virus in culture; type: cell-based; settings: Escherichia coli, 16 h, read-out: Minimum Inhibitory Concentration (MIC), *E. coli CSH(RE45), lactamase-producing strain; 10^6 CFU/ml
How it was run: as §1

E. coli CSH2 (RK1) = experiment: microbe, parasite or virus in culture; type: cell-based; settings: Escherichia coli, 16 h, read-out: Minimum Inhibitory Concentration (MIC), *E. coli CSH2 (RK1), lactamase-producing strain; 10^6 CFU/ml
How it was run: as §1

Ps. aeruginosa IF03445 = experiment: in vitro antibacterial activity, agar plate dilution method (MIC); type: cell-based, Pseudomonas aeruginosa; settings: Pseudomonas aeruginosa, 10^6 CFU/ml
How it was run: as §1

Ps. aeruginosa AKR17 = experiment: as above; type: cell-based, Pseudomonas aeruginosa; settings: Pseudomonas aeruginosa, 16 h; Ps. aeruginosa AKR17; 10^6 CFU/ml; read-out: Minimum Inhibitory Concentration (MIC)
How it was run: as §1

Ps. aeruginosa AK 109 = experiment: as above; type: cell-based, Pseudomonas aeruginosa; settings: Pseudomonas aeruginosa, AK109, 16 h, read-out: Minimum Inhibitory Concentration (MIC)
How it was run: as §1

A. calcoaceticus No. 4 = experiment: as above; type: cell-based, Acinetobacter calcoaceticus; settings: Acinetobacter calcoaceticus, NO.4, 16 h, A. calcoaceticus No. 4; 10^6 CFU/ml; read-out: Minimum Inhibitory Concentration (MIC)
How it was run: as §1

[1] = read-out: Minimum Inhibitory Concentration (MIC)
[2] = read-out: Minimum Inhibitory Concentration (MIC), S. aureus 209P NIHJ-JC1
[3] = *S. marcescens No. 16-2, lactamase-producing strain, 10^6 CFU/ml
[4] = NO.42, 16 h, read-out: Minimum Inhibitory Concentration (MIC), *K. pneumoniae No. 42, lactamase-producing strain
[5] = GN10650, 16 h, read-out: Minimum Inhibitory Concentration (MIC), *K. oxytoca GN10650, lactamase-producing strain
[6] = read-out: Minimum Inhibitory Concentration (MIC), K. pneumoniae PCI-602
[7] = *E. cloacae Nek 39, lactamase-producing strain, read-out: Minimum Inhibitory Concentration (MIC)
[8] = 16 h, Ps. aeruginosa IF03445, read-out: Minimum Inhibitory Concentration (MIC)
[9] = Ps. aeruginosa AK 109, 10^6 CFU/ml
[10] = read-out: Minimum Inhibitory Concentration (MIC), *E. coli GN5482, lactamase-producing strain, 10^6 CFU/ml
[11] = K. pneumoniae PCI-602, read-out: Minimum Inhibitory Concentration (MIC)
[12] = read-out: Minimum Inhibitory Concentration (MIC), *E. cloacae Nek 39, lactamase-producing strain

Compound: CC(C)(O/N=C(\C(=O)N[C@@H]1C(=O)N2C(C(=O)O)=C(CSc3ncc(-c4ccccc4)o3)CS[C@H]12)c1csc(N)n1)C(=O)O [compound 22, disodium 7β-[2-(2-aminothiazol-4-yl)-2-(1-carboxylate-1-methylethoxyimino)acetamido]-3(5-phenyloxazol-2-yl)thiomethyl-3-cephem-4-carboxylate, reference compound]
- MIC (Ps. cepacia 23; Burkholderia cepacia, 23, 16 h): 12.5 µg/mL
- MIC (E. coli GN5482; [1]): 3.12 µg/mL
- MIC (S. aureus 209P NIHJ-JC1; [2]): 6.25 µg/mL
- MIC (E. cloacae 963): 12.5 µg/mL
- MIC (P. vulgaris No. 33): 0.78 µg/mL
- MIC (S. marcescens No. 16-2; [3]): 25 µg/mL
- MIC (P. vulgaris HX-19): < 6 ng/mL
- MIC (K. pneumoniae No. 42; [4]): 12.5 µg/mL
- MIC (M. morganii GN5407): 6.25 µg/mL
- MIC (S. marcescens IAM 1184): 3.12 µg/mL
- MIC (K. oxytoca GN10650; [5]): 6.25 µg/mL
- MIC (E. coli NIHJ JC2): 12.5 µg/mL
- MIC (K. pneumoniae PCI-602; [6]): 0.1 µg/mL
- MIC (E. cloacae Nek 39; [7]): 25 µg/mL
- MIC (E. coli CSH(RE45)): 3.12 µg/mL
- MIC (E. coli CSH2 (RK1)): 3.12 µg/mL
- MIC (Ps. aeruginosa IF03445; [8]): 50 µg/mL
- MIC (Ps. aeruginosa AKR17): > 100 µg/mL
- MIC (Ps. aeruginosa AK 109; [9]): 50 µg/mL
- MIC (A. calcoaceticus No. 4): > 100 µg/mL

Compound: CO/N=C(\C(=O)N[C@@H]1C(=O)N2C(C(=O)O)=C(CSc3ncc(-c4ccc(O)cc4)o3)CS[C@H]12)c1csc(N)n1 [compound 23, sodium 7β-[2-(2-aminothiazol-4-yl)-2-methoxyiminoacetamido]-3-[5-(4-hydroxyphenyl)-oxazol-2-yl]thiomethyl-3-cephem-4-carboxylate, reference compound]
- MIC (Ps. cepacia 23; Burkholderia cepacia, 23, 16 h): 3.12 µg/mL
- MIC (E. coli GN5482; [10]): 0.78 µg/mL
- MIC (S. aureus 209P NIHJ-JC1; S. aureus 209P NIHJ-JC1, read-out: Minimum Inhibitory Concentration (MIC)): 0.2 µg/mL
- MIC (E. cloacae 963): 3.12 µg/mL
- MIC (P. vulgaris No. 33): 0.78 µg/mL
- MIC (S. marcescens No. 16-2; [3]): 25 µg/mL
- MIC (P. vulgaris HX-19): < 6 ng/mL
- MIC (K. pneumoniae No. 42; [4]): 3.12 µg/mL
- MIC (M. morganii GN5407): 1.56 µg/mL
- MIC (S. marcescens IAM 1184): 0.78 µg/mL
- MIC (K. oxytoca GN10650; 16 h, *K. oxytoca GN10650, lactamase-producing strain, read-out: Minimum Inhibitory Concentration (MIC)): 25 µg/mL
- MIC (E. coli NIHJ JC2): 1.56 µg/mL
- MIC (K. pneumoniae PCI-602; [11]): 0.0125 µg/mL
- MIC (E. cloacae Nek 39; [12]): 6.25 µg/mL
- MIC (E. coli CSH(RE45)): 0.78 µg/mL
- MIC (E. coli CSH2 (RK1)): 0.78 µg/mL
- MIC (Ps. aeruginosa IF03445; [8]): 50 µg/mL
- MIC (Ps. aeruginosa AKR17): > 100 µg/mL
- MIC (Ps. aeruginosa AK 109; [9]): 50 µg/mL
- MIC (A. calcoaceticus No. 4): 50 µg/mL

Compound: CC(C)(O/N=C(\C(=O)N[C@@H]1C(=O)N2C(C(=O)O)=C(CSc3ncc(-c4ccc(O)cc4)o3)CS[C@H]12)c1csc(N)n1)C(=O)O [compound 24, disodium 7β-[2-(2-aminothiazol-4-yl)-2-(1-carboxylate-1-methylethoxyimino)acetamido]-3-[5-(4-hydroxyphenyl)oxazol-2-yl]thiomethyl-3-cephem-4-carboxylate, reference compound]
- MIC (Ps. cepacia 23; Burkholderia cepacia, 23, 16 h): 6.25 µg/mL
- MIC (E. coli GN5482; [1]): 3.12 µg/mL
- MIC (S. aureus 209P NIHJ-JC1; [2]): 6.25 µg/mL
- MIC (E. cloacae 963): 12.5 µg/mL
- MIC (P. vulgaris No. 33): 0.39 µg/mL
- MIC (S. marcescens No. 16-2; [3]): 25 µg/mL
- MIC (P. vulgaris HX-19): < 6 ng/mL
- MIC (K. pneumoniae No. 42; [4]): 12.5 µg/mL
- MIC (M. morganii GN5407): 6.25 µg/mL
- MIC (S. marcescens IAM 1184): 3.12 µg/mL
- MIC (K. oxytoca GN10650; [5]): 6.25 µg/mL
- MIC (E. coli NIHJ JC2): 12.5 µg/mL
- MIC (K. pneumoniae PCI-602; [11]): 0.2 µg/mL
- MIC (E. cloacae Nek 39; [7]): 25 µg/mL
- MIC (E. coli CSH(RE45)): 3.12 µg/mL
- MIC (E. coli CSH2 (RK1)): 3.12 µg/mL
- MIC (Ps. aeruginosa IF03445; [8]): 25 µg/mL
- MIC (Ps. aeruginosa AKR17): > 100 µg/mL
- MIC (Ps. aeruginosa AK 109; [9]): 25 µg/mL
- MIC (A. calcoaceticus No. 4): > 100 µg/mL

Compound: C=CCO/N=C(\C(=O)N[C@@H]1C(=O)N2C(C(=O)O)=C(CSc3nnc(-c4ccc(O)c(O)c4)s3)CS[C@H]12)c1csc(N)n1 [compound 30, sodium 78-[2-allyloxyimino-2-(2-aminothiazol-4-yl)acetamido]-3-[5-(3,4-dihydroxyphenyl)-1,3,4-thiadiazol-2-yl]thiomethyl-3-cephem-4-carboxylate]
- MIC (Ps. cepacia 23; Burkholderia cepacia, 16 h, Ps. cepacia 23, 10^6 CFU/ml): < 0.006 µg/mL
- MIC (E. coli GN5482; [10]): 0.78 µg/mL
- MIC (S. aureus 209P NIHJ-JC1; [2]): 0.78 µg/mL
- MIC (E. cloacae 963): 0.05 µg/mL
- MIC (P. vulgaris No. 33): 0.39 µg/mL
- MIC (S. marcescens No. 16-2): 12.5 µg/mL
- MIC (P. vulgaris HX-19): < 6 ng/mL
- MIC (K. pneumoniae No. 42; 16 h, *K. pneumoniae No. 42, lactamase-producing strain, read-out: Minimum Inhibitory Concentration (MIC)): < 0.006 µg/mL
- MIC (M. morganii GN5407): 0.05 µg/mL
- MIC (S. marcescens IAM 1184): 0.0125 µg/mL
- MIC (K. oxytoca GN10650; [5]): 1.56 µg/mL
- MIC (E. coli NIHJ JC2): 0.2 µg/mL
- MIC (K. pneumoniae PCI-602; [6]): < 0.006 µg/mL
- MIC (E. cloacae Nek 39; [12]): 0.1 µg/mL
- MIC (E. coli CSH(RE45)): 0.78 µg/mL
- MIC (E. coli CSH2 (RK1)): 0.0125 µg/mL
- MIC (Ps. aeruginosa IF03445; IF03445, 16 h, read-out: Minimum Inhibitory Concentration (MIC), Ps. aeruginosa IF03445): 0.39 µg/mL
- MIC (Ps. aeruginosa AKR17): 25 µg/mL
- MIC (Ps. aeruginosa AK 109): 0.39 µg/mL
- MIC (A. calcoaceticus No. 4): 0.2 µg/mL
